Data on 21 molecules can be found in patent publication US20250282785A1, “PYRROLIDINONE DERIVATIVES AS INHIBITORS OF NF KAPPA B INDUCING KINASE” (priority 2022, published 2025).

The target of experiment [1] is Recombinant Human NF-Kappab-Inducing Kinase (NIK/MAP3K14) (Homo sapiens, UniProt Q99558). The experiment can be described thus: Inhibition of auto-phosphorylation of recombinant human NIK/MAP3K14 (AlphaScreen). The experiment is classed as biochemical. The settings on record: NIK/MAP3K14 auto-phosphorylation, 5 microM ATP, 1 nM enzyme, 2 h at 25° C.; average of values; read-out: Assay 1 IC50. As to the method:
Biological Assay 1: Inhibition of Auto-Phosphorylation of Recombinant Human NF-Kappab-Inducing Kinase (NIK/MAP3K14) Activity (AlphaScreen®)
NIK/MAP3K14 auto-phosphorylation activity was measured using the AlphaScreen® ((αscreen) format (Perkin ElmeR). All compounds tested were dissolved in dimethyl sulfoxide (DMSO) and further dilutions were made in assay buffer. Final DMSO concentration was 0.7% (v/v) in assays. Assay buffer was 50 mM Tris pH 7.5 containing 1 mM EGTA (ethylene glycol tetraacetic acid), 1 mM DTT (dithiothreitol), 0.1 mM Na3VO4, 5 mM MgCl2, 0.01% Tween® 20. Assays were carried out in 384 well Proxiplates (Perkin ElmeR). Incubations consisted of compound, 5 microM Adenosine-5′-triphosphate (ATP), and 1 nM NIK/MAP3K14. Incubations were initiated by addition of GST-tagged NIK/MAP3K14 enzyme, carried out for 2 h at 25° C. and terminated by addition of stop buffer containing anti-phospho-IKK Ser176/180 antibody. Protein A Acceptor and Glutathione-donor beads were added before reading using an EnVision® Multilabel Plate Reader (Perkin ElmeR). Signal obtained in the wells was normalized using high (full enzyme activity, 0.7% DMSO) and low controls (no enzyme activity, 0.7% DMSO, no ATP). IC50's were determined by fitting a sigmoidal curve to % inhibition of control versus Log10 compound concentration.
In general terms: In Alpha technology, singlet oxygen from a donor bead excites a nearby acceptor bead.

The test system of experiment [2] is p-IKKα levels in L363 (NIK translocated multiple myeloma) cells. Put plainly: Effect of compounds on p-IKKα levels in L363 cells (AlphaLISA SureFire Ultra). The experiment is classed as cell-based. The settings on record: Homo sapiens, L-363; L363 cells, BAFF stimulated, MG132, 6 h; average of values; read-out: Assay 2 IC50. On the procedure: Biological Assay 2: Effect of Compounds on p-IKKα Levels in L363 (NIK Translocated Multiple Myeloma) Cells
All compounds tested were dissolved and serially diluted in DMSO, 1:3 dilution for 11 points in an Echo compatible plate. 100% DMSO is added to columns 12 and 24 of the plate to serve as high and low signal controls. This compound plate was used to spot 20 nl of compound or DMSO into a Greiner 384 well TC plate (781080). Final DMSO concentration was […] (v/v) in cell assays. Human L363 cells (ATCC) were cultured in RPMI 1640 medium supplemented with GlutaMax, non-essential amino acids, sodium pyruvate and 10% fetal bovine serum. Cells were routinely maintained at densities of 0.2×10^6 cells per ml −2×10^6 cells per ml at 37° C. in a humidified 5% CO2 atmosphere incubator. Cells were passaged twice a week splitting back to obtain the low density. The day before the assay, cells were washed twice in HBSS, resuspended in DMEM+0.5% IgG and protease free BSA (Jackson Immuno Research Laboratories), +/−250 ng/ml recombinant human B-cell activating factor (BAFF/BLyS/TNFSF13B) and incubated overnight at 37° C. in a humidified 5% CO2 atmosphere (bulk stimulation with or without BAFF). The next day, cell concentration was adjusted to 1×10^7 cells/ml in DMEM+/−250 ng/ml BAFF+/−10 uM MG132 and plated at 10 ul/well into compound or DMSO spotted 384 well TC plates. Seeded cells were incubated at 37° C. in a humidified 5% CO2 atmosphere for 6 h. After 6 h, plates were removed from the incubator and cell lysis was achieved by the addition of 2.5 μl 5× lysis buffer containing protease and phosphatase inhibitors, followed by shaking on a plate shaker at room temperature for 15 min. At the end of this incubation, lysed cells were sequentially treated and incubated with acceptor and donor bead mixes according to the manufacturer's protocol for a 1 plate/2-incubation suspension cell assay (AlphaLISA SureFire Ultra p-IKKα (Ser 176/180) Assay Kit (Perkin ElmeR). Plates were read using an EnVision® Multilabel Plate Reader (Perkin ElmeR). Within an experiment, a concentration response curve for each compound was run in duplicate. Signal obtained in the test wells was normalized using high signal (BAFF stimulated cells, DMSO, MG132) and low signal (unstimulated cells, DMSO) controls. To determine the IC50, a sigmoidal curve was fitted to the plot of % inhibition versus Log10 compound concentration.

Sequence of Recombinant Human NF-Kappab-Inducing Kinase (NIK/MAP3K14) (Q99558 whole entry): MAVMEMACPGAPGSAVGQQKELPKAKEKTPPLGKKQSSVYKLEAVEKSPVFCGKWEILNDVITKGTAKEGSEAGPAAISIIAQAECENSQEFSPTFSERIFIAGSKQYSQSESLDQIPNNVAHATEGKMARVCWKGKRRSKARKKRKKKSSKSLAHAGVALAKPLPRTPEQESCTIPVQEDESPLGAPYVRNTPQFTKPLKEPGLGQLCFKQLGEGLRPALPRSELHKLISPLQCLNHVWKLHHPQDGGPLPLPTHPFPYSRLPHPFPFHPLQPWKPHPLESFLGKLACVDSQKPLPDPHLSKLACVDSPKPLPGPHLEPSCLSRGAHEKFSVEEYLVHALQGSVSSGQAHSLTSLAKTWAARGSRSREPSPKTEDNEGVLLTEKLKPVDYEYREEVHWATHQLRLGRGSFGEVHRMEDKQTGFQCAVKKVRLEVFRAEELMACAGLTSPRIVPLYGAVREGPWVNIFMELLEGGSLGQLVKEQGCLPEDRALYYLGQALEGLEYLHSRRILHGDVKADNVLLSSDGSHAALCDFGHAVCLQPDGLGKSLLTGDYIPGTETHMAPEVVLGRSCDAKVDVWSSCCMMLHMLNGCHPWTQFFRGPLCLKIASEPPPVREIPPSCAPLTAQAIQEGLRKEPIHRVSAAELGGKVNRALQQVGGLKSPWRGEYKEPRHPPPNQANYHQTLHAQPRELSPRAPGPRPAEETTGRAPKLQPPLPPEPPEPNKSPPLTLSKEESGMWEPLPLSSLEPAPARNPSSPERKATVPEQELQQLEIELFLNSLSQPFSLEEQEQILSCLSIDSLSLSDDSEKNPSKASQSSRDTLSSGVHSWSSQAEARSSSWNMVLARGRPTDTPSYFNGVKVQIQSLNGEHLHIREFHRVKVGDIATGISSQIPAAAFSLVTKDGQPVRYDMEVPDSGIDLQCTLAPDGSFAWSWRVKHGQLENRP

As to `COc1cc(-c2cccc(-c3cc([C@]4(O)CCN(C)C4=O)on3)c2)nc2c(N)ncnc12` [Example 118, (R)-3-(3-(3-(4-Amino-8-methoxypyrido[3,2-d]pyrimidin-6-yl)phenyl)isoxazol-5-yl)-3-hydroxy-1-methylpyrrolidin-2-one], the values for the IC50 in experiment [1] and in experiment [2] were under 0.1 µM and 0.1 to 0.5 µM, respectively.

On to `COc1cc(-c2cc(-c3cc([C@]4(O)CCN(C)C4=O)on3)c(F)cc2F)nc2c(N)ncnc12` [Example 113, (R)-3-(3-(5-(4-Amino-8-methoxypyrido[3,2-d]pyrimidin-6-yl)-2,4-difluorophenyl)isoxazol-5-yl)-3-hydroxy-1-methylpyrrolidin-2-one], for which the IC50 was under 0.1 µM in experiment [1] and over 0.501 µM in experiment [2].

`CN1CC[C@@](O)(c2cc(-c3cccc(-c4nc(C(N)=O)c(N)cc4F)c3)no2)C1=O` [Example 89, (R)-3-Amino-5-fluoro-6-(3-(5-(3-hydroxy-1-methyl-2-oxopyrrolidin-3-yl)isoxazol-3-yl)phenyl)picolinamide]: the results for the IC50 in experiment [1] and in experiment [2] were under 0.1 µM and 0.1 to 0.5 µM, respectively.

On to `Cc1ccc(-c2cc([C@]3(O)CCN(C)C3=O)on2)cc1-c1cccc(C(N)=O)n1` [Example 151, (R)-6-(5-(5-(3-Hydroxy-1-methyl-2-oxopyrrolidin-3-yl)isoxazol-3-yl)-2-methylphenyl)picolinamide], for which the IC50 in experiment [1] and in experiment [2] was over 0.501 µM throughout.

For `CCc1sc(-c2cccc(-c3cc([C@]4(O)CCN(C)C4=O)on3)c2)nc1C(N)=O` [Example 218, (R)-5-Ethyl-2-(3-(5-(3-hydroxy-1-methyl-2-oxopyrrolidin-3-yl)isoxazol-3-yl)phenyl)thiazole-4-carboxamide], the figures for the IC50 in experiment [1] and in experiment [2] were under 0.1 µM and 0.1 to 0.5 µM, respectively.

Consider `CN1CC[C@@](O)(c2cc(-c3cccc(-c4ccn5nccc5c4)c3)no2)C1=O` [Example 58, (R)-3-hydroxy-1-methyl-3-(3-(3-(pyrazolo[1,5-a]pyridin-5-yl)phenyl)isoxazol-5-yl)pyrrolidin-2-one], for which the results for the IC50 in experiment [1] and in experiment [2] were 0.1 to 0.5 µM and over 0.501 µM, respectively.

With `CN1CC[C@@](O)(c2cc(-c3cccc(-c4nc(C(N)=O)c(C5CC5)s4)c3)no2)C1=O` [Example 208, (R)-5-Cyclopropyl-2-(3-(5-(3-hydroxy-1-methyl-2-oxopyrrolidin-3-yl)isoxazol-3-yl)phenyl)thiazole-4-carboxamide], the figures for the IC50 in experiment [1] and in experiment [2] were under 0.1 µM and 0.1 to 0.5 µM, respectively.

Consider `Cc1cc(N2CCC[C@@H](c3cc([C@]4(O)CCN(C)C4=O)on3)C2)nc2c(N)ncnc12` (single isomer, unassigned) [Example 199], for which the IC50 in experiment [1] is under 0.1 µM; in experiment [2], over 0.501 µM.

As to `CN1CC[C@@](O)(c2cc(-c3cccc(-c4ncnn5cccc45)c3)no2)C1=O` [Example 52, (R)-3-Hydroxy-1-methyl-3-(3-(3-(pyrrolo[2,1-f][1,2,4]triazin-4-yl)phenyl)isoxazol-5-yl)pyrrolidin-2-one], the IC50 in experiment [1] was 0.1 to 0.5 µM; in experiment [2] it was over 0.501 µM.

`[2H]c1nc(N)c2nc(-c3cccc(-c4ncc([C@]5(O)CCN(C)C5=O)o4)c3)ccc2n1` (single isomer, unassigned) [Example 39]: the IC50 in experiment [1] and in experiment [2] was over 0.501 µM each time.

As for `Cc1sc(-c2cccc(-c3cc([C@]4(O)CCN(C)C4=O)on3)c2)nc1C(N)=O` [Example 217, (R)-2-(3-(5-(3-Hydroxy-1-methyl-2-oxopyrrolidin-3-yl)isoxazol-3-yl)phenyl)-5-methylthiazole-4-carboxamide], the IC50 is under 0.1 µM in experiment [1] and 0.1 to 0.5 µM in experiment [2].

For the molecule `Cc1ccc(C(N)=O)nc1-c1cccc(-c2cc([C@]3(O)CCN(C)C3=O)on2)c1` [Example 156, (R)-6-(3-(5-(3-hydroxy-1-methyl-2-oxopyrrolidin-3-yl)isoxazol-3-yl)phenyl)-5-methylpicolinamide], the IC50 is 0.1 to 0.5 µM in experiment [1] and over 0.501 µM in experiment [2].

Turning to `CN1CC[C@@](O)(c2cc(-c3cc(-c4cc(C5CC5)c(N)c(C(N)=O)n4)ccc3F)no2)C1=O` [Example 244, (R)-3-Amino-4-cyclopropyl-6-(4-fluoro-3-(5-(3-hydroxy-1-methyl-2-oxopyrrolidin-3-yl)isoxazol-3-yl)phenyl)picolinamide], the results for the IC50 in experiment [1] and in experiment [2] were under 0.1 µM and over 0.501 µM, respectively.

For the molecule `CN1CC[C@@](O)(c2cc(-c3cccc(-c4ccn5ncccc45)c3)no2)C1=O` [Example 64, (R)-3-Hydroxy-1-methyl-3-(3-(3-(pyrrolo[1,2-b]pyridazin-5-yl)phenyl)isoxazol-5-yl)pyrrolidin-2-one], the IC50 in experiment [1] and in experiment [2] was over 0.501 µM each time.

Turning to `CN1CC[C@@](O)(c2cc(-c3cccc(-n4nc(C(N)=O)c5ccccc54)c3)no2)C1=O` [Example 166, (R)-1-(3-(5-(3-hydroxy-1-methyl-2-oxopyrrolidin-3-yl)isoxazol-3-yl)phenyl)-1H-indazole-3-carboxamide], the 50% inhibitory concentration (IC50) was under 0.1 µM in experiment [1] and 0.1 to 0.5 µM in experiment [2].

Consider `CN1CC[C@@](O)(c2cc(-c3cccc(-n4cc(C(N)=O)cn4)n3)no2)C1=O` [Example 194, (R)-1-(6-(5-(3-Hydroxy-1-methyl-2-oxopyrrolidin-3-yl)isoxazol-3-yl)pyridin-2-yl)-1H-pyrazole-4-carboxamide], for which the IC50 in experiment [1] and in experiment [2] was over 0.501 µM in each case.

In the case of `CN1CC[C@@](O)(c2cc(-c3cccc(-c4cccc5cnc(N)nc45)c3)no2)C1=O` [Example 86, (R)-3-(3-(3-(2-Aminoquinazolin-8-yl)phenyl)isoxazol-5-yl)-3-hydroxy-1-methylpyrrolidin-2-one], the results for the IC50 in experiment [1] and in experiment [2] were under 0.1 µM and over 0.501 µM, respectively.

As to `[2H]C([2H])([2H])N1CC[C@@](O)(c2cc(-c3cccc(-c4nc(C(N)=O)n5c4CCCC5)c3)no2)C1=O` [Example 181, (R)-1-(3-(5-(3-Hydroxy-1-(methyl-d3)-2-oxopyrrolidin-3-yl)isoxazol-3-yl)phenyl)-5,6,7,8-tetrahydroimidazo[1,5-a]pyridine-3-carboxamide], the IC50 in experiment [1] was under 0.1 µM; in experiment [2], 0.1 to 0.5 µM.

Take `CN1CC[C@@](O)(c2cc(-c3cccc(-c4ncc(Nc5cn[nH]c5)c(C(N)=O)n4)c3)no2)C1=O` [Example 141, (R)-5-((1H-Pyrazol-4-yl)amino)-2-(3-(5-(3-hydroxy-1-methyl-2-oxopyrrolidin-3-yl)isoxazol-3-yl)phenyl)pyrimidine-4-carboxamide]: the IC50 in experiment [1] and in experiment [2] was under 0.1 µM each time.

With `CN1CC[C@@](O)(c2cc(-c3cccc(-c4ccc5ncoc5c4)c3)no2)C1=O` [Example 69, (R)-3-(3-(3-(Benzo[d]oxazol-6-yl)phenyl)isoxazol-5-yl)-3-hydroxy-1-methylpyrrolidin-2-one], the IC50 in experiment [1] and in experiment [2] was over 0.501 µM each time.

Consider `Cc1nc2cc(-c3cccc(-c4cc([C@]5(O)CCN(C)C5=O)on4)c3)ccc2o1` [Example 63, (R)-3-Hydroxy-1-methyl-3-(3-(3-(2-methylbenzo[d]oxazol-5-yl)phenyl)isoxazol-5-yl)pyrrolidin-2-one], for which the IC50 in experiment [1] and in experiment [2] was over 0.501 µM in each case.

The IC50 is the point on the concentration scale where inhibition reaches its midpoint.
